According to US12522583B2, “Benzimidazole derivatives and aza-benzimidazole derivatives as Janus kinase 2 inhibitors and uses thereof” (Dana-Farber Cancer Institute, Inc., priority 2018, dated 2026):

What was measured:
Experiment in all cases: KINOMEscan
Assay type in all cases: binding
Conditions in all cases: read-out: percent control
[1] = biological target: ABL1(F317I)-phosphorylated (Homo sapiens (Human), UniProt P00519, F317I)
Source text: (§1) Example 2. In Vitro Kinase Selectivity Profiling of the Compounds of the Present Disclosure

[2] = biological target: ABL1(F317L)-nonphosphorylated (Homo sapiens (Human), UniProt P00519, F317L)
Source text: as §1

[3] = biological target: ABL1(H396P)-phosphorylated (Homo sapiens (Human), UniProt P00519, H396P)
Source text: as §1

AKT3 = AKT3 (Homo sapiens (Human), UniProt Q9Y243)
Source text: as §1

ASK1 = ASK1 (Homo sapiens (Human), UniProt Q99683)
Source text: as §1

EGFR(T790M) = EGFR(T790M) (Homo sapiens (Human), UniProt P00533, T790M)
Source text: as §1

EPHB6 = EPHB6 (Homo sapiens (Human), UniProt O15197)
Source text: as §1

ERK5 = ERK5 (Homo sapiens (Human), UniProt Q13164)
Source text: as §1

FLT4 = FLT4 (Homo sapiens (Human), UniProt P35916)
Source text: as §1

GCN2(Kin.Dom.2, S808G) = GCN2(Kin.Dom.2, S808G) (Homo sapiens, UniProt Q9P2K8, S808G)
Source text: as §1

LIMK1 = LIMK1 (Homo sapiens (Human), UniProt P53667)
Source text: as §1

LKB1 = LKB1 (Homo sapiens (Human), UniProt Q15831)
Source text: as §1

MINK = MINK (Homo sapiens (Human), UniProt Q8N4C8)
Source text: as §1

MST3 = MST3 (Homo sapiens (Human), UniProt Q9Y6E0)
Source text: as §1

NEK11 = NEK11 (Homo sapiens (Human), UniProt Q8NG66)
Source text: as §1

NEK4 = NEK4 (Homo sapiens (Human), UniProt P51957)
Source text: as §1

PAK1 = PAK1 (Homo sapiens (Human), UniProt Q13153)
Source text: as §1

PHKG1 = PHKG1 (Homo sapiens (Human), UniProt Q16816)
Source text: as §1

PIK3CA(C420R) = PIK3CA(C420R) (Homo sapiens (Human), UniProt P42336, C420R)
Source text: as §1

PIP5K1A = PIP5K1A (Homo sapiens (Human), UniProt Q99755)
Source text: as §1

PRKCH = PRKCH (Homo sapiens (Human), UniProt P24723)
Source text: as §1

RET(M918T) = RET(M918T) (Homo sapiens (Human), UniProt P07949, M918T)
Source text: as §1

[4] = biological target: RPS6KA4(Kin.Dom.2-terminal) (Homo sapiens (Human), UniProt O75676)
Source text: as §1

[5] = biological target: RSK1(Kin.Dom.1-N-terminal) (Homo sapiens (Human), UniProt Q15418)
Source text: as §1

[6] = biological target: RSK3(Kin.Dom.1-N-terminal) (Homo sapiens (Human), UniProt Q15349)
Source text: as §1

SNRK = SNRK (Homo sapiens (Human), UniProt Q9NRH2)
Source text: as §1

TSSK3 = TSSK3 (Homo sapiens (Human), UniProt Q96PN8)
Source text: as §1

ZAK = ZAK (Homo sapiens (Human), UniProt Q9NYL2)
Source text: as §1

LKB1, sequence (Q15831 whole entry): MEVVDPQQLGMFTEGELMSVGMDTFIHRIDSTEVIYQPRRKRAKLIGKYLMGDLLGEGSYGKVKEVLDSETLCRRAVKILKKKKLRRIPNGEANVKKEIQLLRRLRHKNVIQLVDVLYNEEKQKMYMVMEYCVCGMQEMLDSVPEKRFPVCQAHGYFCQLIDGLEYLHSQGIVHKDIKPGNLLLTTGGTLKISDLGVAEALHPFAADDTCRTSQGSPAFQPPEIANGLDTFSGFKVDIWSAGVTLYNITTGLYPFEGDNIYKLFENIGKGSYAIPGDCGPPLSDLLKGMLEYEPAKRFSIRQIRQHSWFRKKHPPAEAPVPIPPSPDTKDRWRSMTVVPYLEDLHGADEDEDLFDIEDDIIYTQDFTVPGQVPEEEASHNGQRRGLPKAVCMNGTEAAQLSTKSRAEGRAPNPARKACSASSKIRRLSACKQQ
ERK5, sequence (Q13164 whole entry): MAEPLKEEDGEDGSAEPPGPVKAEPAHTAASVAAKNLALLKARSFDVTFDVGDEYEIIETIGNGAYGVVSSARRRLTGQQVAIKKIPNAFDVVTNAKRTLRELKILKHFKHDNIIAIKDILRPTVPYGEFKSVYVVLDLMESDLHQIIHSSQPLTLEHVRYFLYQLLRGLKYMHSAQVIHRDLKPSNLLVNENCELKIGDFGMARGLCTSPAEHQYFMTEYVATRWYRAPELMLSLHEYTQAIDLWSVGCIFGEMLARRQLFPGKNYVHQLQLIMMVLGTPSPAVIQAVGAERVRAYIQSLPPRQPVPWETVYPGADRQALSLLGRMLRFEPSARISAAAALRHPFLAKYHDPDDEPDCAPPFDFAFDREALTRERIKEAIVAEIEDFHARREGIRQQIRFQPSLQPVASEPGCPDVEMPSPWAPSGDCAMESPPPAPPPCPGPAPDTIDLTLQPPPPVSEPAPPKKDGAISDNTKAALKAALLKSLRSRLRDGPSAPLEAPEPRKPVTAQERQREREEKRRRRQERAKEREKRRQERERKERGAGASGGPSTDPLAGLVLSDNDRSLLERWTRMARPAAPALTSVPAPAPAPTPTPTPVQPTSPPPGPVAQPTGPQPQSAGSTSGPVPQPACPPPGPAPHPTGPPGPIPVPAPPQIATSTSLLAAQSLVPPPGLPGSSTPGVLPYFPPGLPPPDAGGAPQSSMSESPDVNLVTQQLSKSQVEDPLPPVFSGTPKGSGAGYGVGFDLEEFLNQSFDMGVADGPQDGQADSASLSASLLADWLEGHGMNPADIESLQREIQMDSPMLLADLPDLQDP
PIP5K1A, sequence (Q99755 whole entry): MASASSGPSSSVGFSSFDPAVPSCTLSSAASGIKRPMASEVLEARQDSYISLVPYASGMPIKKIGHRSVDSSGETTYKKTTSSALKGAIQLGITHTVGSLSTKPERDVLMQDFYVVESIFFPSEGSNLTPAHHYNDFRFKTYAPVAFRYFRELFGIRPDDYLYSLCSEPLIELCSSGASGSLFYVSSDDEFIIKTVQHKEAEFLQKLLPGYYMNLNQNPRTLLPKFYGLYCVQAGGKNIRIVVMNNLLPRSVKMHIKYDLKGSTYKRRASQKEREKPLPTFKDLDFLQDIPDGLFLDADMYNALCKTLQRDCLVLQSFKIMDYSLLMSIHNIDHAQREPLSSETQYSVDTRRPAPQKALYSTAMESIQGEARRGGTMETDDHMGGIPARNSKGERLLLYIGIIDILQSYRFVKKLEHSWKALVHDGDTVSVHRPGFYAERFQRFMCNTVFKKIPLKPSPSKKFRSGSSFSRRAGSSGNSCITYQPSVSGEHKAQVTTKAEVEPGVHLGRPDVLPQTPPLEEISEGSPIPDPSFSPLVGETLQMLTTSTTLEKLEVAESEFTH
PIK3CA(C420R), sequence (P42336 whole entry C420R): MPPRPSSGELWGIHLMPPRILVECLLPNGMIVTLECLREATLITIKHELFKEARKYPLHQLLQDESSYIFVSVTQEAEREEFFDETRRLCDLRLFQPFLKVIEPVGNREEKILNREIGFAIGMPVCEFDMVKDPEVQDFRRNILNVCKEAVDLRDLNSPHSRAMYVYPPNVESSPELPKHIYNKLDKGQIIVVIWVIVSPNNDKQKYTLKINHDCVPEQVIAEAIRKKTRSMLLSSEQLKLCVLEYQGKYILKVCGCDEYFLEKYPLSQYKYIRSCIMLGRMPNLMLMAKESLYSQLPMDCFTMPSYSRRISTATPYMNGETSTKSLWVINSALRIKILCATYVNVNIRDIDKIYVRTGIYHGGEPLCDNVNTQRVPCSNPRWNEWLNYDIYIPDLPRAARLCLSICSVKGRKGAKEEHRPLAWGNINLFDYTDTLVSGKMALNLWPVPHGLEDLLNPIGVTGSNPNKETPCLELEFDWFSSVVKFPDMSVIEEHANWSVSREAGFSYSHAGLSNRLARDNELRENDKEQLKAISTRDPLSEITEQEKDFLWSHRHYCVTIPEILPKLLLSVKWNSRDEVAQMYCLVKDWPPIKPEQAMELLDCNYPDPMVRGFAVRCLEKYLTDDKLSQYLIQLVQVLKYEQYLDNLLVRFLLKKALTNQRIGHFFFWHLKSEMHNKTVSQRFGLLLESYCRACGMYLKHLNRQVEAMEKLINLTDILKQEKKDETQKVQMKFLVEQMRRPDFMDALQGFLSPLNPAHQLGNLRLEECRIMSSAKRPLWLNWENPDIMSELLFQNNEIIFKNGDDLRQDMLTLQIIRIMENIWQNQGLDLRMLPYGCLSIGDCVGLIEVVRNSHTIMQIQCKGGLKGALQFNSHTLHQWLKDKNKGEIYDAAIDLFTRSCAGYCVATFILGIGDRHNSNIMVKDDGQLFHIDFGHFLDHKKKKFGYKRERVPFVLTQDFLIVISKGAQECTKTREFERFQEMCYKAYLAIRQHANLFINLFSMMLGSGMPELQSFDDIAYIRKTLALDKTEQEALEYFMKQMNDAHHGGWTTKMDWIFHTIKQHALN
EGFR(T790M), sequence (P00533 25-1210 T790M): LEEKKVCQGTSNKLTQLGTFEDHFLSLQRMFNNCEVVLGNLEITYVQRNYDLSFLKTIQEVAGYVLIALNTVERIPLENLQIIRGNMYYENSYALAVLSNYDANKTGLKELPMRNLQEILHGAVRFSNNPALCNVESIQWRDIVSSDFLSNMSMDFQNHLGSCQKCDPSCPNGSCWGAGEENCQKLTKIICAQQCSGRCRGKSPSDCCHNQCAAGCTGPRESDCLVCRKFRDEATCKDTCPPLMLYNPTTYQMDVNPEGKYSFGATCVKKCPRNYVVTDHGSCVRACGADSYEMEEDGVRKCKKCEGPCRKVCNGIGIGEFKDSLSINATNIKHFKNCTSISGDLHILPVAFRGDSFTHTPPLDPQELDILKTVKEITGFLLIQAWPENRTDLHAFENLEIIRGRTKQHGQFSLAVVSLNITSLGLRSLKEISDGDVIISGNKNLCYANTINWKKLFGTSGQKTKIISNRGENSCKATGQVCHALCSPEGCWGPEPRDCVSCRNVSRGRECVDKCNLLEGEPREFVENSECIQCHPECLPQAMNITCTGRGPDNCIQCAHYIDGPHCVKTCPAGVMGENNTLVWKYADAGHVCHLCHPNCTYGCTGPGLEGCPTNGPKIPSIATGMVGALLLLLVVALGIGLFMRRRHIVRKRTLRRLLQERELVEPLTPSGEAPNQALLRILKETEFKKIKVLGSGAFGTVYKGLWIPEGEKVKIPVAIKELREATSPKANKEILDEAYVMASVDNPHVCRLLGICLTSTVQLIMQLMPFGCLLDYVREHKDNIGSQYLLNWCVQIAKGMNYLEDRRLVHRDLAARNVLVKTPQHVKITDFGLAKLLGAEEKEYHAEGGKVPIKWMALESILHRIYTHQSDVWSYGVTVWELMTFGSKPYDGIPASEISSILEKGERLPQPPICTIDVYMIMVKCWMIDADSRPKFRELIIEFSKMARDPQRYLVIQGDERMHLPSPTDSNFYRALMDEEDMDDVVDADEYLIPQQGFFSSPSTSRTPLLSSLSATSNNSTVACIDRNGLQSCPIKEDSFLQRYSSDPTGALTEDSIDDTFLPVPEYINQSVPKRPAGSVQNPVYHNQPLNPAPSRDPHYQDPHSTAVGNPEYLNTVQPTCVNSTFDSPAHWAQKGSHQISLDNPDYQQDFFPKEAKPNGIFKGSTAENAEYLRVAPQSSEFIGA
MST3, sequence (Q9Y6E0 whole entry): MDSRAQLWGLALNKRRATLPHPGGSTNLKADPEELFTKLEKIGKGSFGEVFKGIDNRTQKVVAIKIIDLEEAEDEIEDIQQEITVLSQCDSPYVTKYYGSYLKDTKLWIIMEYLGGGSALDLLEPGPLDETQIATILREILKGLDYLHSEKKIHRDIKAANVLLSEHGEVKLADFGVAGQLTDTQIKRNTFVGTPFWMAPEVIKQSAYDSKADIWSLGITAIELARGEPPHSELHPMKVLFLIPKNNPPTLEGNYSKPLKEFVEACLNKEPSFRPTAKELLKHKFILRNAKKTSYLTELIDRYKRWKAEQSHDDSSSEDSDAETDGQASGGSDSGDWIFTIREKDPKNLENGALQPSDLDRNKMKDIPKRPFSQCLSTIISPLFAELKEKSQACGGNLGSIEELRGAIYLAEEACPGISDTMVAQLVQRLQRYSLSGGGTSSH
PAK1, sequence (Q13153 whole entry): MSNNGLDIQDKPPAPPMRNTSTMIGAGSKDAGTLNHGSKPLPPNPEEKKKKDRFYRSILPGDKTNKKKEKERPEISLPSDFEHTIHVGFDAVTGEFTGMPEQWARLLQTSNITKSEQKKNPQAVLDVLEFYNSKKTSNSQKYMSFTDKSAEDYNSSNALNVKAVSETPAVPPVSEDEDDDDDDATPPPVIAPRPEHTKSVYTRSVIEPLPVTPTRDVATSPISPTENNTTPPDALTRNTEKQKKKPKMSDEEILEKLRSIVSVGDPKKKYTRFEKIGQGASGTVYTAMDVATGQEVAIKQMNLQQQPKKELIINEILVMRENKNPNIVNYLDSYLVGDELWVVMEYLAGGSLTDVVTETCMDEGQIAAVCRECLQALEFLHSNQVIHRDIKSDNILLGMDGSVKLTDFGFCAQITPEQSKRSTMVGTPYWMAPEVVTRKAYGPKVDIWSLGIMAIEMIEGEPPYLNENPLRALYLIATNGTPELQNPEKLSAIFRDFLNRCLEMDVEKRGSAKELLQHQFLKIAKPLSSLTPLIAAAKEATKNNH

Row | SMILES | remaining binding at 1 µM [1] [%] | remaining binding at 1 µM [2] [%] | remaining binding at 1 µM [3] [%] | remaining binding at 1 µM (AKT3) [%] | remaining binding at 1 µM (ASK1) [%] | remaining binding at 1 µM (EGFR(T790M)) [%] | remaining binding at 1 µM (EPHB6) [%] | remaining binding at 1 µM (ERK5) [%] | remaining binding at 1 µM (FLT4) [%] | remaining binding at 1 µM (GCN2(Kin.Dom.2, S808G)) [%] | remaining binding at 1 µM (LIMK1) [%] | remaining binding at 1 µM (LKB1) [%] | remaining binding at 1 µM (MINK) [%] | remaining binding at 1 µM (MST3) [%] | remaining binding at 1 µM (NEK11) [%] | remaining binding at 1 µM (NEK4) [%] | remaining binding at 1 µM (PAK1) [%] | remaining binding at 1 µM (PHKG1) [%] | remaining binding at 1 µM (PIK3CA(C420R)) [%] | remaining binding at 1 µM (PIP5K1A) [%] | also measured
1 | CCN1CCN(Cc2ccc(Nc3nc4ccc(Oc5ccnc(NC(C)=O)c5)cc4n3C)cc2C(F)(F)F)CC1 [Compound I-2] | 82 | 9 | 45 | 99 | 77 | 96 | 72 | 89 | 0.5 | 28 | 100 | 40 | 92 | 94 | 100 | 56 | 88 | 94 | 100 | 99 | remaining binding at 1 µM (PRKCH): 100%; remaining binding at 1 µM (RET(M918T)): 0.8%; remaining binding at 1 µM [4]: 88%; remaining binding at 1 µM [5]: 100%; remaining binding at 1 µM [6]: 70%; remaining binding at 1 µM (SNRK): 100%; remaining binding at 1 µM (TSSK3): 86%; remaining binding at 1 µM (ZAK): 25%
2 | CCN1CCN(Cc2ccc(Nc3nc4ccc(Oc5ccnc(NC(C)=O)c5)c(C)c4n3C)cc2C(F)(F)F)CC1 [Compound I-6, N-(4-(2-(4-((4-ethylpiperazin-1-yl)methyl)-3-(trifluoromethyl)phenylamino)-1,7-dimethyl-1H-benzo[d]imidazol-6-yloxy)pyridin-2-yl)acetamide] | 34 | 3.2 | 30 | 100 | 97 | 83 | 95 | 88 | 0.7 | 44 | 65 | 91 | 59 | 90 | 61 | 56 | 77 | 91 | 99 | 100 | remaining binding at 1 µM (PRKCH): 87%; remaining binding at 1 µM (RET(M918T)): 0.15%; remaining binding at 1 µM [4]: 89%; remaining binding at 1 µM [5]: 99%; remaining binding at 1 µM [6]: 100%; remaining binding at 1 µM (SNRK): 81%; remaining binding at 1 µM (TSSK3): 100%; remaining binding at 1 µM (ZAK): 5.6%
